This is an account of results in patent US20070203118A1, “SUBSTITUTED TETRAHYDROISOQUINOLINES USED IN THE FORM OF MMP INHIBITORS, METHOD FOR THE PRODUCTION AND USE THEREOF IN THE FORM OF DRUGS” (SANOFI-AVENTIS DEUTSCHLAND GMBH, priority 2004, published 2007).

What is called IC50 is the point on the concentration scale where inhibition reaches its midpoint. A lower IC50 goes with greater potency.

The target of the experiment is T1, catalytic domain of human collagenase-3 (MMP-13) (Homo sapiens, UniProt P45452).
T1 construct: Determination of the Enzymatic Activity of the Catalytic Domain of Human Collagenase-3 (MMP-13); purchased INVITEK, Berlin
In words: Enzymatic activity of the catalytic domain of human collagenase-3 (MMP-13), fluorogenic substrate. It is filed as biochemical. The procedure:
Determination of the Enzymatic Activity of the Catalytic Domain of Human Collagenase-3 (MMP-13)
Activation of the proenzyme: 2 parts by volume of proenzyme were incubated with 1 part by volume of APMA solution at 37° C. for 1.5 hours. The APMA solution was prepared from a 10 mmol/l p-aminophenylmercuric acetate solution in 0.1 mmol/l NaOH by dilution with 3 parts by volume of Tris/HCl buffer pH 7.5 (see below). The pH was adjusted to between 7.0 and 7.5 by adding 1 mmol/l HCl. After activation of the enzyme it was diluted with the Tris/HCl buffer to a concentration of 1.67 μg/ml.
The enzymic activity was measured by incubating 10 μl of enzyme solution with 10 μl of a 3% strength (v/v) buffered dimethyl sulfoxide solution (reaction 1) for 15 minutes. The enzyme inhibitor activity was measured by incubating 10 μl of enzyme solution with 10 μl of a 3% strength (v/v) buffered dimethyl sulfoxide solution which contained the enzyme inhibitor (reaction 2).
The enzymic reaction both in the case of reaction 1 and in the case of reaction 2 was followed after addition of 10 μl of a 3% strength (v/v) aqueous dimethyl sulfoxide solution which contained 0.075 mmol/l of the substrate by fluorescence spectroscopy (328 nm (extinction)/393 nm (emission)).
The enzymic activity has been presented as increase in extinction/minute. The effect of the inhibitor was calculated as percentage inhibition by the following formula: % inhibition=100−[(increase in extinction/minute in reaction 2)/(increase in extinction/minute in reaction 1)×100].
The IC50, which is the concentration of inhibitor which is necessary for 50% inhibition of the enzymic activity, was determined graphically by plotting the percentage inhibitions at various inhibitor concentrations.
The buffer solution contained 0.05% Brij (Sigma, Deisenhofen, Germany) and 0.1 mol/l Tris/HCl, 0.1 mol/l NaCl, 0.01 mol/l CaCl2 (pH=7.5). The enzyme solution contained 1.67 μg/ml of the enzyme domain. The substrate solution contained 0.075 mmol/l of the fluorogenic substrate (7-methoxycoumarin-4-yl)acetyl-Pro-Leu-Gly-Leu-3-(2′,4′-dinitrophenyl)-L-2,3-diaminopropionyl-Ala-Arg-NH2 (Bachem, Heidelberg, Germany).
`O=C(NO)[C@H]1c2ccccc2CCN1S(=O)(=O)c1ccc(Oc2ccncc2)cc1` [Compound 11] returned an IC50 of 2.3 nM.

As for `O=C(NO)[C@H]1c2ccccc2CCN1S(=O)(=O)c1ccc(Oc2ccc(OC(F)(F)F)cc2)nc1` [Compound 43, (R)-2-[6-(4-trifluoromethoxyphenoxy)pyridine-3-sulfonyl]-1,2,3,4-tetrahydro-isoquinoline-1-hydroxycarboxamide], the IC50 was 30 nM.

`O=C(NO)[C@H]1c2ccccc2CCN1S(=O)(=O)c1ccc(Oc2ccc(Cl)cc2)cc1` [Compound 9] returned an IC50 of 2.1 nM.

As to `O=C(NO)[C@H]1c2ccccc2CCN1S(=O)(=O)c1ccc(Oc2ccc(OCC(F)(F)F)cc2)cc1` [Compound 22], the IC50 came out at 130 nM. Compared with the last compound, the IC50 is about 62-fold higher.

Compound `O=C(NO)[C@H]1c2ccccc2CCN1S(=O)(=O)c1ccc(Oc2ccc(C(F)(F)F)cc2)cc1` [Compound 21, (R)-2-[4-(4-trifluoromethylphenoxy)benzenesulfonyl]-1,2,3,4-tetrahydro-isoquinoline-1-hydroxycarboxamide] yielded an IC50 of 2.5 nM.

With `COc1cc2c(cc1OC)[C@@H](C(=O)NO)N(S(=O)(=O)c1ccc(-c3ccc(Cl)cc3)cc1)CC2` [Compound 15], the IC50 is 2 nM.

Take “(R)-4-(1-hydroxycarbamoyl-3,4-dihydro-1H-isoquinoline-2-sulfonyl)phenyl benzoate [Compound 48]”: the IC50 was 3 nM. This IC50 lies about 1.5-fold higher than the previous one.

`COc1ccc(F)c2c1[C@H](C(=O)NO)N(S(=O)(=O)c1ccc(-c3ccc(Cl)cc3)cc1)CC2` [Compound 18] registered an IC50 of 7.5 nM.

Take “2-{2-[4-(4-fluorophenoxy)phenyl]ethanesulfonyl}-1,2,3,4-tetrahydroisoquinoline-1-hydroxycarboxamide [Compound 20]”: inhibition was half-maximal at 2.2 nM (IC50).

Compound `O=C(NO)[C@H]1c2ccccc2CCN1S(=O)(=O)c1ccc(Oc2ccc(Cl)cc2)nc1` [Compound 45, (R)-2-[6-(4-chlorophenoxy)pyridine-3-sulfonyl]-1,2,3,4-tetrahydroisoquinoline-1-hydroxycarboxamide] gave an IC50 of 8 nM. Against the preceding compound, the IC50 is about 3.6-fold higher.
